Results published in US20240217966A1, “PHARMACEUTICAL COMPOSITION CONTAINING GLP-1 RECEPTOR AGONIST HAVING FUSED RING” (Shionogi & Co., Ltd., priority 2021, published 2024).

Key:
[1] = Metabolism stability test (Test Example 2-2); format: in vitro ADME; conditions: pooled human liver microsomes 0.5 mg protein/mL, 37° C., 30 minutes, 1 mmol/L NADPH (oxidative reaction), compound concentration 0.5 μmol/L
Experimental: Test Example 2-2: Metabolism Stability Test
Using commercially available pooled human liver microsomes, a compound of the present invention is reacted for a constant time, and a remaining rate is calculated by comparing a reacted sample and an unreacted sample, thereby, a degree of metabolism in liver is assessed.
A reaction is performed (oxidative reaction) at 37° C. for 0 minute or 30 minutes in the presence of 1 mmol/L NADPH in 0.2 mL of a buffer (50 mmol/L Tris-HCl pH 7.4, 150 mmol/L potassium chloride, 10 mmol/L magnesium chloride) containing 0.5 mg protein/mL of human liver microsomes. After the reaction, 70 μL of the reaction solution is added to 140 μL of a methanol/acetonitrile=1/1 (v/v), mixed and centrifuged at 3000 rpm for 15 minutes. The compound of the present invention in the centrifuged supernatant is quantified by LC/MS/MS or solid-phase extraction (SPE)/MS. The ratio of the amount of the compound after the reaction, with respect to the amount of the compound at 0 minutes of the reaction defined as 100%, is shown as the residual rate. Hydrolysis reaction is performed in the absence of NADPH, and glucuronidation reaction is performed in the presence of 5 mmol/L UDP-glucuronic acid instead of NADPH. Then, the same operation is carried out. The dilution concentration or the dilution solvent are changed as necessary.
The compounds of the present invention were tested essentially as described above.

Human GLP-1 receptor = molecular target: T1, Human GLP-1 receptor (Homo sapiens, UniProt P43220); test: Measurement of GLP-1 receptor agonist activity (cAMP assay); format: cell-based; conditions: for Emax: CHO-K1, hGLP-1R/CHO-K1 cells, cAMP, 100% = human GLP-1 (7-36) at 2 nM, 0% = DMSO only, read-out: Emax(%); for EC50: hGLP-1R/CHO-K1 cells, cAMP increase, 37° C. 1 hour
T1 construct: expressed in transfected cells
Method in brief: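 Agonism measured as cAMP accumulation by time-resolved FRET immunoassay in CHO-K1 cells stably expressing human GLP-1 receptor. Cells treated for 1 h at 37 °C with compound and forskolin (400 μM stock), in buffer containing the PDE inhibitors IBMX (0.1 mM) and RO20-1724 (0.2 mM).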

T1 sequence (P43220 24-463): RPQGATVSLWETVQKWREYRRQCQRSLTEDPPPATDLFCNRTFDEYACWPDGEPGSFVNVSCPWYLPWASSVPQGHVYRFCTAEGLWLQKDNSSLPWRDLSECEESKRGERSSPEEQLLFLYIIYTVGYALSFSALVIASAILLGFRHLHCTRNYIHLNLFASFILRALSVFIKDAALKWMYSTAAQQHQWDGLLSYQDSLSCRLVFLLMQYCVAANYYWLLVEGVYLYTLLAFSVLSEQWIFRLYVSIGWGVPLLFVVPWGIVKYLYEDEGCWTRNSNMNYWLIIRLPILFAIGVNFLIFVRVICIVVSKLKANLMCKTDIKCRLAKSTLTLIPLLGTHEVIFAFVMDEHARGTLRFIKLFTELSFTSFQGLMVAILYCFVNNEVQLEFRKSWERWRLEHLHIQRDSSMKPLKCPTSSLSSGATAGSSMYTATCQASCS

Row | residual rate of the compound [1] [%] | Emax (Human GLP-1 receptor) [%] | EC50 (Human GLP-1 receptor) [nM] | SMILES
1 | > 99.9 | 97.7 | 3.76 | C[C@H]1c2cc(OCc3ccc(F)cc3)c(C(F)(F)F)cc2CCN1Cc1nc2ccc(C(=O)O)cc2n1C[C@@H]1CCO1 [Compound I-123]
2 | 94.0 | 108 | 0.0938 | C[C@H]1c2nc(OCc3ccc(Cl)cc3F)c(C(F)(F)F)cc2CCN1Cc1nc2ccc(C(=O)O)cc2n1C[C@@H]1CCO1 [Compound I-145]
3 | 92.4 | 118 | 0.0524 | C[C@H]1c2nc(OCc3ccc(Cl)cc3F)c(C(F)(F)F)cc2CCN1Cc1nc2ccc(C(=O)O)c(F)c2n1C[C@@H]1CCO1 [Compound I-160]
